# Assay results: patent US20080261263A1, “In Vitro Evaluation of Micro-Organisms and Their Antimicrobial Agent Susceptibilities” (SYFT Technologies Limited, priority 2005, published 2008)
# Legend:
# E. coli [1] = test: Effect of antibiotic on E. coli blood culture headspace VC production (SIFT-MS SIMscan); type: cell-based, Escherichia coli
# Excerpt: (§1) In one form of the method headspace atmospheres are introduced above conventional Biomerieux BacT/ALERT® aerobic or anaerobic blood cultures at a controlled rate into the flow tube precursor ion stream. The count rates of the resulting product ions are then to be determined by a “downstream” quadrupole and particle multiplier detector. Operating in full scan mode, the detector quadrupole is scanned over a predetermined m/z range to obtain a spectrum of product ions. In selected ion mode (SIMscan) the count rate of selected product ions is determined as the downstream […] is switched to and remains on selected m/zs.
# (§2) Standard Biomerieux (Durham, N.C., USA) BacT/ALERT® SA, FA and SN disposable, plastic culture bottles containing 40 ml of culture medium were used throughout the experiments. 9 ml of healthy, uninfected human blood and 1 ml aliquots of antibiotics prepared in sterile water were added (in the relevant experiments) as required to each bottle prior to the addition of 1 ml of bacterial species suspended in sterile physiological saline.
# (§3) SIFT-MS mass scan studies comparing 24 hour BacT/ALERT®SA blood culture headspace VCs with medium+blood controls identified a test panel of SIM VC analytes suitable for the five bacterial species tested. These bacterial metabolites included acetaldehyde, acetic acid, acetone, 2-aminoacetophenone, ammonia, dimethyldisulfide (DMDS), dimethylsulfide (DMS), formaldehyde, ethanol, hydrogen sulfide, indole, methanethiol, pentanols and propanol. […] absolute concentration measurements in parts per billion (ppb v/v) were integrated, averaged and recorded separately for acetaldehyde, acetic acid, ethanol, acetone, ammonia, hydrogen sulfide, DMS and DMDS during each 30 second SIMscan for each triplicate culture of the five test species after incubation in BacT/ALERT aerobic media. The results are recorded in Table 1 (below).
# (§4) Approximately 10^3 CFU E. coli or S. aureus were inoculated into Biomerieux BacT/ALERT® SA bottles including 9 ml of fresh uninfected blood. Each bacterial species was incubated in triplicate either alone or in the presence of antibiotics above or below their predetermined minimal inhibitory concentrations (MIC).
# (§5) Gentamicin was added to E. coli cultures at either 2 μg/ml or 0.05 μg/ml (MIC 0.25-1 μg/m)l. Flucloxacillin was added to S. aureus cultures at 2 μg/ml or 0.05 μg/ml (MIC 0.12-0.5 μg/ml).
# (§6) The mean, minima and maxima integrated headspace analyte concentration measurements obtained from E. coli and S. aureus cultures are compared in Tables 8 and 9.
# E. coli [2] = test: Predetermined minimal inhibitory concentration (MIC) for E. coli; type: cell-based, Escherichia coli
# S. aureus [3] = test: Effect of antibiotic on S. aureus blood culture headspace VC production (SIFT-MS SIMscan); type: cell-based, Staphylococcus aureus; settings: for Ammonia mean concentration / DMS mean concentration: S. aureus 6 h; for Aminoacetophenone mean concentration / Ethanol mean concentration / Formaldehyde mean concentration: S. aureus 22 h; for Inhibition of aminoacetophenone, ethanol and formaldehyde: S. aureus 22 hours; for Effect on production of ammonia and dimethylsulfide by S. aureus: six hours, flucloxacillin above and below its MIC
# Excerpt: as §1, §2, §3, §4, §5, §6
# S. aureus [4] = test: Predetermined minimal inhibitory concentration (MIC) for S. aureus; type: cell-based; settings: Staphylococcus aureus
# [5] = E. coli 6 h, gentamicin <MIC (0.05 μg/ml)
# [6] = E. coli 6 h, gentamicin >MIC (2 μg/ml)
# [7] = E. coli 22 h, gentamicin <MIC (0.05 μg/ml)
# [8] = E. coli 22 h, gentamicin >MIC (2 μg/ml)
# [9] = flucloxacillin <MIC (0.05 μg/ml)
compound,measurement,setting,value
Gentamicin,Hydrogen sulfide mean concentration,E. coli [1]; [5],0 ppb
same,Pentanols mean concentration,E. coli [1]; [5],120 ppb
same,Hydrogen sulfide mean concentration,E. coli [1]; [6],0 ppb
same,Pentanols mean concentration,E. coli [1]; [6],90 ppb
same,Acetaldehyde mean concentration,E. coli [1]; [7],3300 ppb
same,Acetic acid mean concentration,E. coli [1]; [7],1950 ppb
same,Aminoacetophenone mean concentration,E. coli [1]; [7],900 ppb
same,DMDS mean concentration,E. coli [1]; [7],380 ppb
same,DMS mean concentration,E. coli [1]; [7],30 ppb
same,Ethanol mean concentration,E. coli [1]; [7],42000 ppb
same,Formaldehyde mean concentration,E. coli [1]; [7],140 ppb
same,Hydrogen sulfide mean concentration,E. coli [1]; [7],1030 ppb
same,Indole mean concentration,E. coli [1]; [7],210 ppb
same,Methanethiol mean concentration,E. coli [1]; [7],1400 ppb
same,Pentanols mean concentration,E. coli [1]; [7],220 ppb
same,Propanol mean concentration,E. coli [1]; [7],5800 ppb
same,Acetaldehyde mean concentration,E. coli [1]; [8],2700 ppb
same,Acetic acid mean concentration,E. coli [1]; [8],600 ppb
same,Aminoacetophenone mean concentration,E. coli [1]; [8],280 ppb
same,DMDS mean concentration,E. coli [1]; [8],190 ppb
same,DMS mean concentration,E. coli [1]; [8],30 ppb
same,Ethanol mean concentration,E. coli [1]; [8],16000 ppb
same,Formaldehyde mean concentration,E. coli [1]; [8],110 ppb
same,Hydrogen sulfide mean concentration,E. coli [1]; [8],6 ppb
same,Indole mean concentration,E. coli [1]; [8],110 ppb
same,Methanethiol mean concentration,E. coli [1]; [8],150 ppb
same,Pentanols mean concentration,E. coli [1]; [8],90 ppb
same,Propanol mean concentration,E. coli [1]; [8],1700 ppb
same,Effect on production of all headspace VCs (except formaldehyde),"E. coli [1]; E. coli 22 hours, gentamicin above its MIC, p<0.005",significantly inhibited
same,Effect on most analytes (except hydrogen sulfide and methanethiol),"E. coli [1]; E. coli 22 hours, gentamicin below its MIC, p<0.01",Significant (p<0.01) reductions
same,Effect on production of hydrogen sulfide by E. coli,"E. coli [1]; six hours, both gentamicin concentrations",eliminated
same,MIC,E. coli [2],0.25 to 1 µg/mL
Cc1onc(-c2c(F)cccc2Cl)c1C(=O)N[C@@H]1C(=O)N2[C@@H]1SC(C)(C)[C@@H]2C(=O)O [Flucloxacillin],Ammonia mean concentration,S. aureus [3]; [9],40 ppb
same,DMS mean concentration,S. aureus [3]; [9],30 ppb
same,Ammonia mean concentration,S. aureus [3]; flucloxacillin >MIC (2 μg/ml),50 ppb
same,DMS mean concentration,S. aureus [3]; flucloxacillin >MIC (2 μg/ml),10 ppb
same,Aminoacetophenone mean concentration,S. aureus [3]; [9],200 ppb
same,Ethanol mean concentration,S. aureus [3]; [9],7500 ppb
same,Formaldehyde mean concentration,S. aureus [3]; [9],60 ppb
same,Aminoacetophenone mean concentration,S. aureus [3]; flucloxacillin >MIC (2 μg/ml),60 ppb
same,Ethanol mean concentration,S. aureus [3]; flucloxacillin >MIC (2 μg/ml),1900 ppb
same,Formaldehyde mean concentration,S. aureus [3]; flucloxacillin >MIC (2 μg/ml),20 ppb
same,"Inhibition of aminoacetophenone, ethanol and formaldehyde","S. aureus [3]; flucloxacillin above its MIC, p<0.01",notable
same,"Inhibition of aminoacetophenone, ethanol and formaldehyde",S. aureus [3]; lower flucloxacillin concentration (below MIC),not inhibitory
same,Effect on production of ammonia and dimethylsulfide by S. aureus,S. aureus [3],significantly reduced
same,Effect on production of ammonia and dimethylsulfide by S. aureus,S. aureus [3]; listed as flucloxacillin,"inhibited to uninoculated, antibiotic-containing control levels"
same,MIC,S. aureus [4],0.12 to 0.5 µg/mL
